Results reported in patent US20250019652A1, “PRODUCTION METHOD FOR SHEET-LIKE RETINAL TISSUE” (RIKEN, priority 2021, published 2025).

How the values were obtained:
Format in all cases: cell-based, human
[1] = test system: single cell suspension of dispersed retinal cells (KhES-1-derived); experiment: Layer structure formation-promoting factor: reformed aggregates, immunostained sections (Example 3); conditions: 3 μM CHIR99021
Method: The aggregates of Day 26 from initiation of the suspension culture prepared as in Example 1 were washed with PBS, and a neuronal cell dispersion solution (manufactured by FUJIFILM Wako Pure Chemical Corp.) was added. After incubation at 37° C., they were dispersed into single cells by pipetting. These cells were suspended in 100 μL of a serum-free medium so as to become 3.0×10^4 cells per well of a non-cell adhesive 96-well culture plate (trade name: PrimeSurface 96-well V-bottom plate, manufactured by Sumitomo Bakelite Co., Ltd.), and suspension-cultured at 37° C. and 5% CO2.
The aggregates of Day 15 (corresponding to Differentiation Day 41) and Day 28 (corresponding to Differentiation Day 54) after suspension culture for aggregate reforming were fixed in 4% PFA, and frozen sections were prepared. These frozen sections were subjected to immunostaining using DAPI and anti-Chx10 antibody (trade name: Anti CHX10 Antibody, Exalpha Biologicals Inc.), anti-β-catenin antibody (R&D Systems, Inc.), anti-collagen IV antibody (Abcam plc), anti-Zo-1 antibody (Invitrogen Corp.), anti-Ki67 antibody (Becton, Dickinson and Company), anti-Pax6 antibody (BioLegend, Inc.), anti-RxR-γ (RxRg) antibody (Spring Bioscience Corp.), anti-CRX antibody (Abnova Corp.), anti-NRL antibody (R&D Systems, Inc.), anti-recoverin antibody (manufactured by Proteintech Group, Inc.), anti-Islet-1 antibody (Developmental Studies Hybridoma Bank (DSHB)), anti-GS antibody (Sigma-Aldrich Co., LLC), anti-Brn3 antibody (Santa Cruz Biotechnology), and anti-calretinin antibody (R&D Systems, Inc.).
These immunostained sections were observed under a bright field microscope and a fluorescence microscope (BZ-X810 manufactured by Keyence Corp.) and a confocal laser scanning fluorescence microscope (SP-8 manufactured by Leica), and the results are shown in FIGS. 11 to 20. […] From FIGS. 19 and 20, it was confirmed that RxR-Y(RxRg)-positive and CRX-positive cone progenitor cells and recoverin-positive and CRX-positive photoreceptor progenitor cells were differentiated, and the differentiation of Islet-1-positive and Brn3-positive retinal ganglion cells and calretinin-positive amacrine cells was also confirmed.

[2] = test system: retinal cells (NR) dispersed into single cells (KhES-1-derived); experiment: Seeding onto Transwell: confirmation of effect of CHIR99021 (Example 9); conditions: CHIR99021 5 μM or 3 μM with Y-27632 (and SAG); Day 14
Method: (§1) The aggregates of Days 15 to 30 from initiation of the suspension culture prepared as in Example 1 were washed with PBS, and a neuronal cell dispersion solution (manufactured by FUJIFILM Wako Pure Chemical Corp.) was added. After incubation at 37° C., they were dispersed into single cells by pipetting.
When cell sheets obtained on Culture Day 14 for aggregate reforming were observed, it was confirmed that the cells were engrafted under all the conditions (FIG. 29). Accordingly, these cell sheets were fixed in 4% PFA, and frozen sections were prepared. These frozen sections were subjected to immunostaining using DAPI and anti-Zo-1 antibody (trade name: Anti Zo-1 Antibody, manufactured by Invitrogen Corp.) and anti-collagen IV antibody (Abcam plc). These immunostained sections were observed under a confocal laser scanning fluorescence microscope.

[3] = test system: single cells dispersed from KhES-1- and 1231A3-derived aggregates; experiment: Aggregate proliferation-promoting factor: aggregate area in suspension culture with Y-27632 (Example 2); conditions: SAG 300 nM or CHIR99021 3 μM in addition to 10 μM Y-27632; Day 1, 7, 14
Method: The aggregates of Day 20 (1231A3) and Day 27 (KhES-1) from initiation of the suspension culture prepared as in Example 1 were washed with PBS, and a neuronal cell dispersion solution (manufactured by FUJIFILM Wako Pure Chemical Corp.) was added. After incubation at 37° C., they were dispersed into single cells by pipetting. These cells were suspended in 100 μL of a serum-free medium containing 10 μM Y-27632 (FUJIFILM Wako Pure Chemical Corp.) so as to become 2 to 5×10^5 cells per well of a non-cell adhesive 96-well culture plate (trade name: PrimeSurface 96-well V-bottom plate, manufactured by Sumitomo Bakelite Co., Ltd.), and suspension-cultured at 37° C. and 5% CO2. […] The reformed states of the aggregates were observed under a bright field microscope and a fluorescence microscope (BZ-X810 manufactured by Keyence Corp.) on Day 1, Day 7, and Day 14 after suspension culture for aggregate reforming. The areas of the aggregates were measured in Image J. The results of the KhES-1-derived cells are shown in FIG. 6 (an average value from 12 […] measured). The results of the 1231A3-derived cells in which the reformed states of the aggregates of Day 1 after suspension culture were observed are shown in FIG. 7.

[4] = test system: retinal cells (NR) dispersed into single cells (KhES-1-derived, dd33); experiment: Seeding onto Transwell: concentration and addition period of CHIR99021 (Example 10); conditions: 1 μM to 9 μM CHIR99021 for 3 days to 9 days
Method: as §1, with “33 days (dd33) after the start” for “Days 15 to 30 from initiation”, “pipetting. […] 3 days or later from seeding, the medium was replaced once every 3 to 4 days.” for “pipetting.”
Accordingly, these cell sheets were fixed in 4% PFA, and frozen sections were prepared. These frozen sections were subjected to immunostaining using DAPI.

Cc1c[nH]c(-c2cnc(NCCNc3ccc(C#N)cn3)nc2-c2ccc(Cl)cc2Cl)n1 [CHIR99021]
reforming of aggregates ([1]; Day 1, Day 14, Day 28): aggregates were reformed | apical-basal polarity (Zo-1, collagen IV) ([1]; Day 15 and Day 28 sections): epithelial tissue having apical and basal polarities was formed | layer structure formation (Rx::Venus, Chx10) ([1]; Day 15 and Day 28 sections): a layer structure where Rx::Venus-positive and Chx10-positive neural retinal progenitor cells were contained was formed | apical and basal polarity of sheet [2]: sheets of Rx::Venus-positive retinal progenitor cells having apical and basal polarities were formed again | size of reformed aggregates versus only Y-27632 [3]: larger aggregates were reformed | reforming of thick sheets [4]: thick sheets of Rx::Venus-positive retinal progenitor cells were reformed
